Reference: patent US6852673B2, “Herbicidal pyridine compounds” (BASF Aktiengesellschaft, priority 1998, dated 2005)

Columns and labels:
Type in all cases: in vivo
[1] = tested on: Setaria viridis (SETVI); experiment: Pre-emergence herbicidal evaluation, green foxtail
Source text: (§1) The pre-emergence herbicidal activity of the compounds of the present invention is exemplified by the following test in which the seeds of a variety of monocotyledonous and dicotyledonous plants are seperately mixed with potting soil and planted on top of approximately one inch of soil in separate pots. After planting, the pots are sprayed with the selected aqueous acetone solution containing test compound in sufficient quantity to provide the equivalent of about 0.0125 to 0.4 kg per hectare of test compound per pot. The treated pots are then placed on greenhouse benches, watered and cared for in accordance with conventional greenhouse procedures. From 2 to 4 weeks after treatment, the tests are terminated and each pot is examined and rated according to the rating system set forth below.

[2] = tested on: Matricaria inodora (MATIN); experiment: Pre-emergence herbicidal evaluation, mayweed
Source text: as §1

[3] = tested on: Ipomoea hederacea (IPOHE); experiment: Post-emergence herbicidal evaluation, morning glory; settings: rated 2 to 4 weeks after treatment
Experimental: (§2) [table] [table] […] These acetone solutions are diluted with water and the resulting formulations applied at dosage levels equivalent of about 0.03 to 0.4 kg per hectare of test compound per pot. After spraying the plants are placed on greenhouse benches and are cared for in the usual manner, commensurate with conventional greenhouse practices. From 2 to 4 weeks after treatment, the seedling plants are examined and rated according to the rating system provided above. A rating 0 indicates growth as untreated control, a rating 9 indicates death.

[4] = tested on: Oryza sativum (ORYSA); experiment: Pre-emergence herbicidal evaluation, rice
Source text: as §1

[5] = tested on: Ipomoea hederacea (IPOHE); experiment: Pre-emergence herbicidal evaluation, morning glory
Source text: as §1

[6] = tested on: Alopecurus myosuroides (ALOMY); experiment: Pre-emergence herbicidal evaluation, black grass
Source text: as §1

[7] = tested on: Oryza sativum (ORYSA); experiment: Post-emergence herbicidal evaluation, rice; settings: rated 2 to 4 weeks after treatment
Experimental: as §2

[8] = tested on: Lamium purpureum (LAMPU); experiment: Pre-emergence herbicidal evaluation, purple deadnettle
Source text: as §1

[9] = tested on: Zea mays (ZEAMX); experiment: Post-emergence herbicidal evaluation, maize; settings: rated 2 to 4 weeks after treatment
Experimental: as §2

[10] = tested on: Abutilon theophrasti (ABUTH); experiment: Post-emergence herbicidal evaluation, velvetleaf; settings: rated 2 to 4 weeks after treatment
Experimental: as §2

[11] = tested on: Lamium purpureum (LAMPU); experiment: Post-emergence herbicidal evaluation, purple deadnettle; settings: rated 2 to 4 weeks after treatment
Experimental: as §2

[12] = tested on: Echinochloa grus galli (ECHCG); experiment: Post-emergence herbicidal evaluation, barnyard grass; settings: rated 2 to 4 weeks after treatment
Experimental: as §2

[13] = tested on: Hordeum vulgare (HORVW); experiment: Pre-emergence herbicidal evaluation, winter barley
Source text: as §1

[14] = tested on: Solanum nigrum (SOLNI); experiment: Pre-emergence herbicidal evaluation, black nightshade
Source text: as §1

[15] = tested on: Triticum aestivum (TRZAW); experiment: Post-emergence herbicidal evaluation, winter wheat; settings: rated 2 to 4 weeks after treatment
Experimental: as §2

[16] = tested on: Zea mays (ZEAMX); experiment: Pre-emergence herbicidal evaluation, maize
Source text: as §1

[17] = tested on: Stellaria media (STEME); experiment: Post-emergence herbicidal evaluation, chickweed; settings: rated 2 to 4 weeks after treatment
Experimental: as §2

[18] = tested on: Glycine max (GLXMA); experiment: Pre-emergence herbicidal evaluation, soyabeans
Source text: as §1

[19] = tested on: Hordeum vulgare (HORVW); experiment: Post-emergence herbicidal evaluation, winter barley; settings: rated 2 to 4 weeks after treatment
Experimental: as §2

[20] = tested on: Abutilon theophrasti (ABUTH); experiment: Pre-emergence herbicidal evaluation, velvetleaf
Source text: as §1

[21] = tested on: Solanum nigrum (SOLNI); experiment: Post-emergence herbicidal evaluation, black nightshade; settings: rated 2 to 4 weeks after treatment
Experimental: as §2

[22] = tested on: Digitaria sanguinalis (DIGSA); experiment: Post-emergence herbicidal evaluation, large crabgrass; settings: rated 2 to 4 weeks after treatment
Experimental: as §2

[23] = tested on: Echinochloa grus galli (ECHCG); experiment: Pre-emergence herbicidal evaluation, barnyard grass
Source text: as §1

[24] = tested on: Matricaria inodora (MATIN); experiment: Post-emergence herbicidal evaluation, mayweed; settings: rated 2 to 4 weeks after treatment
Experimental: as §2

[25] = tested on: Ambrosia artemiisifolia (AMBEL); experiment: Pre-emergence herbicidal evaluation, ragweed
Source text: as §1

With `CC(Cl)=CCOc1cc(C)cc(Oc2cc(C(F)(F)F)nn2C)n1` [Example 11] the “activity against Setaria” value [1] was “superior activity”, the SETVI rating ([1]; dose 0.013 kg/ha) was 7 (7 - Good herbicidal effect) and the SETVI rating ([1]; dose 0.025 kg/ha) was 8 (8 - Approaching complete kill). The SETVI rating ([1]; dose 0.1 kg/ha) was 9 (9 - Complete kill), the SETVI rating ([1]; dose 0.4 kg/ha) was 9 (9 - Complete kill) and the MATIN rating ([2]; dose 0.013 kg/ha) was 9 (9 - Complete kill). For the same compound, the MATIN rating ([2]; dose 0.025 kg/ha) was 9 (9 - Complete kill), the MATIN rating ([2]; dose 0.1 kg/ha) was 9 (9 - Complete kill) and the MATIN rating ([2]; dose 0.4 kg/ha) was 9 (9 - Complete kill). The IPOHE rating ([3]; dose 0.03 kg/ha) was 6 (6 - Herbicidal effect), the IPOHE rating ([3]; dose 0.1 kg/ha) was 9 (9 - Complete kill) and the IPOHE rating ([3]; dose 0.4 kg/ha) was 9 (9 - Complete kill). For the same compound, the ORYSA rating ([4]; dose 0.013 kg/ha) was 1 (1 - Trace effect), the ORYSA rating ([4]; dose 0.025 kg/ha) was 1 (1 - Trace effect) and the ORYSA rating ([4]; dose 0.1 kg/ha) was 2 (2 - Slight effect). For the same compound, the ORYSA rating ([4]; dose 0.4 kg/ha) was 3 (3 - Moderate effect), the IPOHE rating ([5]; dose 0.013 kg/ha) was 2 (2 - Slight effect) and the IPOHE rating ([5]; dose 0.025 kg/ha) was 4 (4 - Injury). The IPOHE rating ([5]; dose 0.1 kg/ha) was 8 (8 - Approaching complete kill), the IPOHE rating ([5]; dose 0.4 kg/ha) was 9 (9 - Complete kill) and the ALOMY rating ([6]; dose 0.013 kg/ha) was 6 (6 - Herbicidal effect). For the same compound, the ALOMY rating ([6]; dose 0.025 kg/ha) was 9 (9 - Complete kill), the ALOMY rating ([6]; dose 0.1 kg/ha) was 9 (9 - Complete kill) and the ALOMY rating ([6]; dose 0.4 kg/ha) was 9 (9 - Complete kill). For the same compound, the ORYSA rating ([7]; dose 0.03 kg/ha) was 1 (1 - Trace effect), the ORYSA rating ([7]; dose 0.1 kg/ha) was 3 (3 - Moderate effect) and the ORYSA rating ([7]; dose 0.4 kg/ha) was 4 (4 - Injury). For the same compound, the LAMPU rating ([8]; dose 0.013 kg/ha) was 5 (5 - Definite injury), the LAMPU rating ([8]; dose 0.025 kg/ha) was 8 (8 - Approaching complete kill) and the LAMPU rating ([8]; dose 0.1 kg/ha) was 8 (8 - Approaching complete kill). For the same compound, the LAMPU rating ([8]; dose 0.4 kg/ha) was 9 (9 - Complete kill), the ZEAMX rating ([9]; dose 0.03 kg/ha) was 2 (2 - Slight effect) and the ZEAMX rating ([9]; dose 0.1 kg/ha) was 5 (5 - Definite injury). The ZEAMX rating ([9]; dose 0.4 kg/ha) was 5 (5 - Definite injury), the ABUTH rating ([10]; dose 0.03 kg/ha) was 5 (5 - Definite injury) and the ABUTH rating ([10]; dose 0.1 kg/ha) was 7 (7 - Good herbicidal effect). The ABUTH rating ([10]; dose 0.4 kg/ha) was 8 (8 - Approaching complete kill), the LAMPU rating ([11]; dose 0.03 kg/ha) was 0 (0 - No effect) and the LAMPU rating ([11]; dose 0.1 kg/ha) was 3 (3 - Moderate effect). The LAMPU rating ([11]; dose 0.4 kg/ha) was 8 (8 - Approaching complete kill), the ECHCG rating ([12]; dose 0.03 kg/ha) was 8 (8 - Approaching complete kill) and the ECHCG rating ([12]; dose 0.1 kg/ha) was 8 (8 - Approaching complete kill). For the same compound, the ECHCG rating ([12]; dose 0.4 kg/ha) was 8 (8 - Approaching complete kill), the HORVW rating ([13]; dose 0.013 kg/ha) was 3 (3 - Moderate effect) and the HORVW rating ([13]; dose 0.025 kg/ha) was 3 (3 - Moderate effect). For the same compound, the HORVW rating ([13]; dose 0.1 kg/ha) was 3 (3 - Moderate effect), the HORVW rating ([13]; dose 0.4 kg/ha) was 6 (6 - Herbicidal effect) and the SOLNI rating ([14]; dose 0.013 kg/ha) was 5 (5 - Definite injury). The SOLNI rating ([14]; dose 0.025 kg/ha) was 7 (7 - Good herbicidal effect), the SOLNI rating ([14]; dose 0.1 kg/ha) was 8 (8 - Approaching complete kill) and the SOLNI rating ([14]; dose 0.4 kg/ha) was 9 (9 - Complete kill). The TRZAW rating ([15]; dose 0.03 kg/ha) was 3 (3 - Moderate effect), the TRZAW rating ([15]; dose 0.1 kg/ha) was 3 (3 - Moderate effect) and the TRZAW rating ([15]; dose 0.4 kg/ha) was 3 (3 - Moderate effect). The ZEAMX rating ([16]; dose 0.013 kg/ha) was 1 (1 - Trace effect), the ZEAMX rating ([16]; dose 0.025 kg/ha) was 2 (2 - Slight effect) and the ZEAMX rating ([16]; dose 0.1 kg/ha) was 3 (3 - Moderate effect). For the same compound, the ZEAMX rating ([16]; dose 0.4 kg/ha) was 5 (5 - Definite injury), the STEME rating ([17]; dose 0.03 kg/ha) was 4 (4 - Injury) and the STEME rating ([17]; dose 0.1 kg/ha) was 6 (6 - Herbicidal effect). For the same compound, the STEME rating ([17]; dose 0.4 kg/ha) was 8 (8 - Approaching complete kill), the selectivity in soybeans [18] was “quite selective” and the GLXMA rating ([18]; dose 0.013 kg/ha) was 0 (0 - No effect). For the same compound, the GLXMA rating ([18]; dose 0.025 kg/ha) was 1 (1 - Trace effect), the GLXMA rating ([18]; dose 0.1 kg/ha) was 2 (2 - Slight effect) and the GLXMA rating ([18]; dose 0.4 kg/ha) was 4 (4 - Injury). The HORVW rating ([19]; dose 0.03 kg/ha) was 3 (3 - Moderate effect), the HORVW rating ([19]; dose 0.1 kg/ha) was 4 (4 - Injury) and the HORVW rating ([19]; dose 0.4 kg/ha) was 4 (4 - Injury). For the same compound, the “activity against Abutilon” value [20] was “superior activity”, the ABUTH rating ([20]; dose 0.013 kg/ha) was 3 (3 - Moderate effect) and the ABUTH rating ([20]; dose 0.025 kg/ha) was 7 (7 - Good herbicidal effect). The ABUTH rating ([20]; dose 0.1 kg/ha) was 9 (9 - Complete kill), the ABUTH rating ([20]; dose 0.4 kg/ha) was 9 (9 - Complete kill) and the SOLNI rating ([21]; dose 0.03 kg/ha) was 3 (3 - Moderate effect). The SOLNI rating ([21]; dose 0.1 kg/ha) was 6 (6 - Herbicidal effect), the SOLNI rating ([21]; dose 0.4 kg/ha) was 8 (8 - Approaching complete kill) and the DIGSA rating ([22]; dose 0.03 kg/ha) was 9 (9 - Complete kill). For the same compound, the DIGSA rating ([22]; dose 0.1 kg/ha) was 9 (9 - Complete kill), the DIGSA rating ([22]; dose 0.4 kg/ha) was 9 (9 - Complete kill) and the ECHCG rating ([23]; dose 0.013 kg/ha) was 4 (4 - Injury). For the same compound, the ECHCG rating ([23]; dose 0.025 kg/ha) was 6 (6 - Herbicidal effect), the ECHCG rating ([23]; dose 0.1 kg/ha) was 8 (8 - Approaching complete kill) and the ECHCG rating ([23]; dose 0.4 kg/ha) was 9 (9 - Complete kill). The MATIN rating ([24]; dose 0.03 kg/ha) was 7 (7 - Good herbicidal effect), the MATIN rating ([24]; dose 0.1 kg/ha) was 8 (8 - Approaching complete kill) and the MATIN rating ([24]; dose 0.4 kg/ha) was 8 (8 - Approaching complete kill). For the same compound, the AMBEL rating ([25]; dose 0.013 kg/ha) was 7 (7 - Good herbicidal effect), the AMBEL rating ([25]; dose 0.025 kg/ha) was 9 (9 - Complete kill) and the AMBEL rating ([25]; dose 0.1 kg/ha) was 9 (9 - Complete kill). For the same compound, the AMBEL rating ([25]; dose 0.4 kg/ha) was 9 (9 - Complete kill).
